Measured values: patent US20110086759A1, “CHEMICAL COMPOUNDS” (SYNGENTA CROP PROTECTION, INC., priority 2007, published 2011)

How the values were obtained:
Type in all cases: in vivo
Solanum nigrum (SOLNI) [1] = assay: Post-emergence biological efficacy, glasshouse pot test; settings: 312 h
Summary of the method: (§1)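 Pot-grown weeds were sprayed 8 days after sowing with test compound in acetone/water (50:50) with 0.5% Tween 20 at 1000 or 250 g/ha. Glasshouse at 24/16° C day/night, 14 h light, 65% humidity. Damage scored 0-100 (100 = total damage) after 13 days.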

[2] = tested on: Ipomea hederaceae (IPOHE); assay: as above; settings: Ipomoea hederacea, 312 h
Summary of the method: as §1

Setaria faberi (SETFA) [3] = assay: as above; settings: 312 h
Summary of the method: as §1

[4] = tested on: Amaranthus retoflexus (AMARE); assay: as above; settings: Amaranthus retroflexus, 312 h
Summary of the method: as §1

[5] = tested on: Echinochloa crus-galli (ECHCG); assay: as above; settings: 312 h
Summary of the method: as §1

[6] = tested on: Alopecurus myosuroides (ALOMY); assay: as above; settings: 312 h
Summary of the method: as §1

Solanum nigrum (SOLNI) [7] = assay: Pre-emergence biological efficacy, glasshouse pot test; settings: 312 h
Summary of the method: (§2)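 Visual phytotoxicity (0 no damage, 100 total damage) assessed 13 d after treatment. Soil-sown pots sprayed one day post-sowing; dose 1000 or 250 g/ha; formulation in acetone/water 50:50, 0.5% Tween 20.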

[8] = tested on: Ipomea hederaceae (IPOHE); assay: as above; settings: Ipomoea hederacea, 312 h
Summary of the method: as §2

Setaria faberi (SETFA) [9] = assay: as above; settings: 312 h
Summary of the method: as §2

[10] = tested on: Amaranthus retoflexus (AMARE); assay: as above; settings: Amaranthus retroflexus, 312 h
Summary of the method: as §2

[11] = tested on: Echinochloa crus-galli (ECHCG); assay: as above; settings: 312 h
Summary of the method: as §2

[12] = tested on: Alopecurus myosuroides (ALOMY); assay: as above; settings: 312 h
Summary of the method: as §2

[13] = Rate 1,000 g/ha, post-emergence spray, evaluated after 13 days (100=total damage to plant; 0=no damage to plant), read-out: Percentage damage caused to weed species, post-emergence, SOLNI
[14] = Rate 1,000 g/ha, post-emergence spray, evaluated after 13 days (100=total damage to plant; 0=no damage to plant), read-out: Percentage damage caused to weed species, post-emergence, IPOHE
[15] = Rate 1,000 g/ha, post-emergence spray, evaluated after 13 days (100=total damage to plant; 0=no damage to plant), read-out: Percentage damage caused to weed species, post-emergence, SETFA
[16] = Rate 1,000 g/ha, post-emergence spray, evaluated after 13 days (100=total damage to plant; 0=no damage to plant), read-out: Percentage damage caused to weed species, post-emergence, AMARE
[17] = Rate 1,000 g/ha, post-emergence spray, evaluated after 13 days (100=total damage to plant; 0=no damage to plant), read-out: Percentage damage caused to weed species, post-emergence, ECHCG
[18] = Rate 1,000 g/ha, post-emergence spray, evaluated after 13 days (100=total damage to plant; 0=no damage to plant), read-out: Percentage damage caused to weed species, post-emergence, ALOMY
[19] = pre-emergence, rate 1,000 g/ha, evaluated after 13 days (100=total damage to plant; 0=no damage), read-out: Percentage damage caused to weed species, SOLNI
[20] = pre-emergence, rate 1,000 g/ha, evaluated after 13 days (100=total damage to plant; 0=no damage), read-out: Percentage damage caused to weed species, IPOHE
[21] = pre-emergence, rate 1,000 g/ha, evaluated after 13 days (100=total damage to plant; 0=no damage), read-out: Percentage damage caused to weed species, SETFA
[22] = pre-emergence, rate 1,000 g/ha, evaluated after 13 days (100=total damage to plant; 0=no damage), read-out: Percentage damage caused to weed species, AMARE
[23] = pre-emergence, rate 1,000 g/ha, evaluated after 13 days (100=total damage to plant; 0=no damage), read-out: Percentage damage caused to weed species, ECHCG
[24] = pre-emergence, rate 1,000 g/ha, evaluated after 13 days (100=total damage to plant; 0=no damage), read-out: Percentage damage caused to weed species, ALOMY
[25] = post-emergence, 1,000 g/ha, evaluated after 13 days (100=total damage; 0=no damage), read-out: Percentage damage caused to weed species, SOLNI
[26] = post-emergence, 1,000 g/ha, evaluated after 13 days (100=total damage; 0=no damage), read-out: Percentage damage caused to weed species, IPOHE
[27] = post-emergence, 1,000 g/ha, evaluated after 13 days (100=total damage; 0=no damage), read-out: Percentage damage caused to weed species, SETFA
[28] = post-emergence, 1,000 g/ha, evaluated after 13 days (100=total damage; 0=no damage), read-out: Percentage damage caused to weed species, AMARE
[29] = post-emergence, 1,000 g/ha, evaluated after 13 days (100=total damage; 0=no damage), read-out: Percentage damage caused to weed species, ECHCG
[30] = post-emergence, 1,000 g/ha, evaluated after 13 days (100=total damage; 0=no damage), read-out: Percentage damage caused to weed species, ALOMY
[31] = pre-emergence, 1,000 g/ha, evaluated after 13 days (100=total damage; 0=no damage), read-out: Percentage damage SOLNI
[32] = pre-emergence, 1,000 g/ha, evaluated after 13 days (100=total damage; 0=no damage), read-out: Percentage damage IPOHE
[33] = pre-emergence, 1,000 g/ha, evaluated after 13 days (100=total damage; 0=no damage), read-out: Percentage damage SETFA
[34] = pre-emergence, 1,000 g/ha, evaluated after 13 days (100=total damage; 0=no damage), read-out: Percentage damage AMARE
[35] = pre-emergence, 1,000 g/ha, evaluated after 13 days (100=total damage; 0=no damage), read-out: Percentage damage ECHCG
[36] = pre-emergence, 1,000 g/ha, evaluated after 13 days (100=total damage; 0=no damage), read-out: Percentage damage ALOMY

Row | Compound | pest or weed control at 1000 g/ha (Solanum nigrum (SOLNI) [1]; [13]) [%] | pest or weed control at 1000 g/ha [2, 14] [%] | pest or weed control at 1000 g/ha (Setaria faberi (SETFA) [3]; [15]) [%] | pest or weed control at 1000 g/ha [4, 16] [%] | pest or weed control at 1000 g/ha [5, 17] [%] | pest or weed control at 1000 g/ha [6, 18] [%] | pest or weed control at 1000 g/ha (Solanum nigrum (SOLNI) [7]; [19]) [%] | pest or weed control at 1000 g/ha [8, 20] [%] | pest or weed control at 1000 g/ha (Solanum nigrum (SOLNI) [1]; [25]) [%] | pest or weed control at 1000 g/ha [2, 26] [%] | pest or weed control at 1000 g/ha (Setaria faberi (SETFA) [3]; [27]) [%] | pest or weed control at 1000 g/ha [4, 28] [%] | pest or weed control at 1000 g/ha [5, 29] [%] | pest or weed control at 1000 g/ha [6, 30] [%] | pest or weed control at 1000 g/ha (Solanum nigrum (SOLNI) [7]; [31]) [%] | pest or weed control at 1000 g/ha [8, 32] [%] | pest or weed control at 1000 g/ha (Setaria faberi (SETFA) [9]; [33]) [%] | pest or weed control at 1000 g/ha [10, 34] [%] | pest or weed control at 1000 g/ha [11, 35] [%] | pest or weed control at 1000 g/ha [12, 36] [%] | also measured
1 | CCN(Cc1ccc(C)o1)c1nc(C2CC2)nc(C(=O)OC)c1Cl [Compound 6-135, 5-Chloro-2-cyclopropyl-4-[N-ethyl-N-(5-methylfuran-2-ylmethyl)-amino]-6-methoxycarbonyl-pyrimidine] | 90 | 90 | 90 | 100 | 60 | 30 | 80 | 100 | – | – | – | – | – | – | – | – | – | – | – | – | pest or weed control at 1000 g/ha (Setaria faberi (SETFA) [9]; [21]): 40%; pest or weed control at 1000 g/ha [10, 22]: 100%; pest or weed control at 1000 g/ha [11, 23]: 60%; pest or weed control at 1000 g/ha [12, 24]: 40%
2 | COC(=O)c1nc(C2CC2)nc(NCc2ccc(OC)cc2OC)c1Cl [Compound 4-110, 5-Chloro-2-cyclopropyl-4-(2,4-dimethoxyphenyl-methylamino)-6-methoxycarbonyl-pyrimidine] | – | – | – | – | – | – | – | – | 80 | 100 | 80 | 100 | 80 | 70 | 90 | 100 | 40 | 100 | 80 | 40 | –
3 | COC(=O)c1nc(C2CC2)nc(N[C@H](C)c2ccc3ccccc3c2)c1Cl [4-185 (R), (R)-5-Chloro-2-cyclopropyl-6-methoxycarbonyl-4-[1-(naphtha-2-yl)ethylamino]-pyrimidine] | – | – | – | – | – | – | – | – | 40 | 70 | 0 | 80 | 0 | 0 | 0 | 70 | 0 | 0 | 0 | 0 | –
4 | COC(=O)c1nc(-c2ccc(C)cc2)nc(NCc2ccco2)c1Cl [Compound 237-48, 5-Chloro-4-(furan-2-ylmethylamino)-6-methoxycarbonyl-2-(4-methylphenyl)-pyrimidine] | 60 | 70 | 0 | 100 | 0 | 0 | 0 | 30 | – | – | – | – | – | – | – | – | – | – | – | – | pest or weed control at 1000 g/ha (Setaria faberi (SETFA) [9]; [21]): 0%; pest or weed control at 1000 g/ha [10, 22]: 100%; pest or weed control at 1000 g/ha [11, 23]: 20%; pest or weed control at 1000 g/ha [12, 24]: 20%
5 | COC(=O)c1nc(C2CC2)nc(N[C@H](C)[C@@H](O)c2ccccc2)c1Cl [4-270 (erythro), 5-Chloro-2-cyclopropyl-4-(erythro-2-hydroxy-1-methyl-2-phenyl-ethylamino)-6-methoxycarbonyl-pyrimidine] | – | – | – | – | – | – | – | – | 80 | 100 | 80 | 100 | 60 | 30 | 80 | 100 | 30 | 80 | 30 | 30 | –
6 | COC(=O)c1nc(C2CC2)nc(NCCN2CCNC2=O)c1Cl [Compound 4-219, 5-Chloro-2-cyclopropyl-6-methoxycarbonyl-4-[2-(2-oxo-imidazolidin-1-yl)ethylamino]-pyrimidine] | – | – | – | – | – | – | – | – | 50 | 50 | 10 | 50 | 0 | 0 | 30 | 90 | 0 | 60 | 0 | 0 | –
7 | COC(=O)c1nc(-c2ccc(Cl)c(OC)c2F)nc(NCc2ccco2)c1Cl [Compound 112-125, 5-Chloro-2-(4-chloro-2-fluoro-3-methoxyphenyl)-4-(furan-2-yl-methyl-amino)-6-methoxy-carbonylpyrimidine] | 100 | 90 | 100 | 100 | 90 | 80 | 90 | 100 | – | – | – | – | – | – | – | – | – | – | – | – | pest or weed control at 1000 g/ha (Setaria faberi (SETFA) [9]; [21]): 90%; pest or weed control at 1000 g/ha [10, 22]: 100%; pest or weed control at 1000 g/ha [11, 23]: 100%; pest or weed control at 1000 g/ha [12, 24]: 70%
8 | COC(=O)c1nc(C2CC2)nc(NCc2ccc(OC)c(OC)c2)c1Cl [Compound 4-112, 5-Chloro-2-cyclopropyl-4-(3,4-dimethoxyphenyl-methylamino)-6-methoxycarbonyl-pyrimidine] | – | – | – | – | – | – | – | – | 100 | 100 | 90 | 100 | 90 | 40 | 90 | 90 | 80 | 70 | 40 | 50 | –
